From US8148391B2 (Cephalon, Inc., priority 2006, dated 2012)
Where two headings read alike, the source gives them in different places.

Columns and labels:
[1] = biological target: T1, c-Met (cytoplasmic domain) (Homo sapiens, UniProt P08581); experiment: c-Met Kinase Assay (same methods as for ALK, with modifications); format: biochemical
T1 construct: 10 ng/mL c-Met (cytoplasmic domain, Invitrogen Corporation #PV3143); purchased Invitrogen Corporation PV3143
Outline: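 Wells were coated with 10 μg/mL phospholipase C-γ substrate in TBS, and reactions were started with 10 ng/mL c-Met cytoplasmic domain and run at 37° C for 15 minutes. Phosphorylated product was detected with Eu-N1-labeled PT66 antibody. IC50 values came from sigmoidal variable-slope fits of percent inhibition versus log compound concentration.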

[2] = biological target: T2, baculovirus-expressed ALK (Homo sapiens, UniProt Q9UM73); experiment: ALK Kinase Assay (ELISA-type, time-resolved fluorescence); format: biochemical
T2 construct: host or cells: baculovirus expression system
T2 sequence (Q9UM73 19-1620): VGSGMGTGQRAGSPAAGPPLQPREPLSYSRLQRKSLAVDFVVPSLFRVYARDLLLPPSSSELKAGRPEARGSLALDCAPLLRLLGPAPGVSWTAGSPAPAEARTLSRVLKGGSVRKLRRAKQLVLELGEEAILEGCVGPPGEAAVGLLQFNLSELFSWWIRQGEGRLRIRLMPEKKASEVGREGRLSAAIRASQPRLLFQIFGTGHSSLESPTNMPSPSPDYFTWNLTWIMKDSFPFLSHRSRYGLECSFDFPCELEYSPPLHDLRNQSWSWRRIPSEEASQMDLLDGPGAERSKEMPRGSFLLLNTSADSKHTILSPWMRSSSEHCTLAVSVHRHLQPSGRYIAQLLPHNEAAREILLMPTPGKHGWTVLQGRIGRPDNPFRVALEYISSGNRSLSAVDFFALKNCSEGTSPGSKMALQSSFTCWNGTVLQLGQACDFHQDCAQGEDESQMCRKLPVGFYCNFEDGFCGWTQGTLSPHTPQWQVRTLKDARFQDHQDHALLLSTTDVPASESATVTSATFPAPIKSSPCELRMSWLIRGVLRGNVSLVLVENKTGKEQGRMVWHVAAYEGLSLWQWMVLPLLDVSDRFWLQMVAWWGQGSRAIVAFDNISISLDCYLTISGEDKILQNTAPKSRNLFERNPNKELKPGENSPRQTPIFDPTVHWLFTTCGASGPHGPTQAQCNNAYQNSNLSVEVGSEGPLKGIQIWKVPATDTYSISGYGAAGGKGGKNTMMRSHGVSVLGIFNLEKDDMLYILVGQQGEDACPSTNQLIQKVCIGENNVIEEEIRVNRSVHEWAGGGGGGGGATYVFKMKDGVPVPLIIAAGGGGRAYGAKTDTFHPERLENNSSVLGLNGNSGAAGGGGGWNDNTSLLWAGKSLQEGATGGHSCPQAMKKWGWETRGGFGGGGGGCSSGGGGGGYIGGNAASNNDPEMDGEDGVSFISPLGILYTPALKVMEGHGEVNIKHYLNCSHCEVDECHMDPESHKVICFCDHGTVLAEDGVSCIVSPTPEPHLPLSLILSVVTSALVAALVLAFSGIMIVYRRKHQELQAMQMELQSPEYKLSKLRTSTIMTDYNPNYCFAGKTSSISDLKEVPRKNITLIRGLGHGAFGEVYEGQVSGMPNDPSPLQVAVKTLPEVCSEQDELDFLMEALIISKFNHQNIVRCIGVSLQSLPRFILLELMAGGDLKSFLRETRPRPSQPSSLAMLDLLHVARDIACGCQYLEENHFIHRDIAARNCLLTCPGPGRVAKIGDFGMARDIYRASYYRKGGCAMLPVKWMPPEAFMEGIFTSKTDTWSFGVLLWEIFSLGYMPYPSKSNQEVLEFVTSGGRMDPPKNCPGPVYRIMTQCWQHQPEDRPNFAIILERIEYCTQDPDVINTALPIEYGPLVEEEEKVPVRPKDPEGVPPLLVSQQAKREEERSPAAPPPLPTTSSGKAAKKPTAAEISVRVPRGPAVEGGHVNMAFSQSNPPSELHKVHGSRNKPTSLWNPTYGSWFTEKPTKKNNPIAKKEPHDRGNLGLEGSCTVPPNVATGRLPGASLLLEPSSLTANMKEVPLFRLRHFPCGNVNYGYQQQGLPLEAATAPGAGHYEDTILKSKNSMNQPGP
Outline: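 Substrate coating: phospholipase C-γ, 10 μg/mL in TBS. Kinase step: 30 ng/ml ALK, 15 min, 37° C. Detection and analysis: Eu-N1 PT66 antibody, with IC50 fitted as a sigmoidal variable-slope dose-response curve.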

[3] = c-Met kinase inhibition, 1 μM ATP (Km level), read-out: cMet Activity
[4] = ALK kinase inhibition, 1 μM ATP (Km level), read-out: ALK Activity
[5] = 1 μM ATP (Km level), 10 ng/mL c-Met, read-out: cMet Activity (c-Met kinase inhibition, IC50 class)
[6] = 1 μM ATP (Km level), 30 ng/ml ALK, 37° C., 15 minutes, read-out: ALK Activity (ALK kinase inhibition, IC50 class)
[7] = c-Met kinase inhibition, 1 μM ATP, read-out: cMet Activity
[8] = ALK kinase inhibition, 1 μM ATP, read-out: ALK Activity
[9] = 1 μM ATP (Km level), read-out: cMet Activity (c-Met Kinase Inhibition, IC50)
[10] = 1 μM ATP (Km level), read-out: ALK Activity (ALK Kinase Inhibition, IC50)

T1 sequence (P08581 956-1390 limits assumed): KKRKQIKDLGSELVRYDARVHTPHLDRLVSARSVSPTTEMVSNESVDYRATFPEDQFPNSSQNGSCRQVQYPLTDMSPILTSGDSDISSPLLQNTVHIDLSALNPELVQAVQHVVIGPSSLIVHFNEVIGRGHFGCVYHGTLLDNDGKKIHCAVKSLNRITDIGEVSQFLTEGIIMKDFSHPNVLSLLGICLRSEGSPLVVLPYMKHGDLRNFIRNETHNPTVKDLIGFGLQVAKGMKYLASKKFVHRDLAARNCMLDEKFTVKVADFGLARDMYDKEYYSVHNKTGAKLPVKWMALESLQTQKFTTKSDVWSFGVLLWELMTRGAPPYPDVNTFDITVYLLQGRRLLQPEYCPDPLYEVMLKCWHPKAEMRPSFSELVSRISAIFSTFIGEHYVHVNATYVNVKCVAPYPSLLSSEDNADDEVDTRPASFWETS

| Compound | IC50 [1, 3] [nM] | IC50 [2, 4] [nM] | IC50 [1, 7] [nM] | IC50 [2, 8] [nM] | also measured |
| --- | --- | --- | --- | --- | --- |
| CO[C@@H](CN1CCc2ccc(Nc3ncc(Cl)c(N[C@@H]4CCCC[C@H]4NS(C)(=O)=O)n3)cc2CC1)C(F)(F)F [Example 336, N-((1R,2R)-2-{5-Chloro-2-[3-((S)-3,3,3-trifluoro-2-methoxy-propyl)-2,3,4,5-tetrahydro-1H-benzo[d]azepin-7-ylamino]-pyrimidin-4-ylamino}-cyclohexyl)-methanesulfonamide] | 100 to 1000 | < 100 | – | – | – |
| CNC(=O)c1ccccc1Nc1nc(Nc2c(OC)ccc3c2CCC(NCC(F)F)CC3)ncc1Cl (stereo not shown) [Example 1078, 2-{5-Chloro-2-[7-(2,2-difluoro-ethylamino)-2-methoxy-6,7,8,9-tetrahydro-5H-benzocyclohepten-1-ylamino]-pyrimidin-4-ylamino}-N-methyl-benzamide] | – | – | – | – | IC50 [1, 5]: > 10000 nM; IC50 [2, 6]: 100 to 1000 nM |
| COc1ccc(Nc2nc(Nc3cc4c(cc3OC)CCN(CC(=O)N(C)C)CC4)ncc2Cl)c(-n2cccn2)c1 [Example 616, 2-{7-[5-Chloro-4-(4-methoxy-2-pyrazol-1-yl-phenylamino)-pyrimidin-2-ylamino]-8-methoxy-1,2,4,5-tetrahydro-benzo[d]azepin-3-yl}-N,N-dimethyl-acetamide] | – | – | – | – | IC50 [1, 9]: > 10000 nM; IC50 [2, 10]: < 100 nM |
| 5-Chloro-N*2*,N*4*-bis-(3-ethyl-2,3,4,5-tetrahydro-1H-benzo[d]azepin-7-yl)-pyridine-2,4-diamine [Example 199] | 1000 to 10000 | < 100 | – | – | – |
| COCCN1CCc2ccc(Nc3ncc(Cl)c(Nc4ccccc4C(=O)NCCN4CCN(C)CC4)n3)cc2CC1 [Example 1402, 2-{5-Chloro-2-[3-(2-methoxy-ethyl)-2,3,4,5-tetrahydro-1H-benzo[d]azepin-7-ylamino]-pyrimidin-4-ylamino}-N-[2-(4-methyl-piperazin-1-yl)-ethyl]-benzamide] | – | – | – | – | IC50 [1, 5]: 1000 to 10000 nM; IC50 [2, 6]: 100 to 1000 nM |
| COCCNC1CCc2cc(Nc3ncc(Cl)c(N[C@@H]4CCCC[C@H]4NS(C)(=O)=O)n3)c(OC)cc2CC1 (stereo partly drawn) [Example 896, N-((1R,2R)-2-{5-Chloro-2-[3-methoxy-7-(2-methoxy-ethylamino)-6,7,8,9-tetrahydro-5H-benzocyclohepten-2-ylamino]-pyrimidin-4-ylamino}-cyclohexyl)-methanesulfonamide] | – | – | – | – | IC50 [1, 9]: > 10000 nM; IC50 [2, 10]: < 100 nM |
| COCCN1CCc2cc(Nc3ncc(Cl)c(Nc4ccc(OC)cc4-n4cccn4)n3)c(OC)cc2CC1 [Example 612, 5-Chloro-N*2*-[8-methoxy-3-(2-methoxy-ethyl)-2,3,4,5-tetrahydro-1H-benzo[d]azepin-7-yl]-N*4*-(4-methoxy-2-pyrazol-1-yl-phenyl)-pyrimidine-2,4-diamine] | – | – | – | – | IC50 [1, 9]: > 10000 nM; IC50 [2, 10]: < 100 nM |
| CN1C(=O)CCCc2cc(Nc3ncc(Cl)c(Nc4ccccc4-c4nccn4C)n3)ccc21 [Example 995, 7-{5-Chloro-4-[2-(1-methyl-1H-imidazol-2-yl)-phenylamino]-pyrimidin-2-ylamino}-1-methyl-1,3,4,5-tetrahydro-benzo[b]azepin-2-one] | – | – | – | – | IC50 [1, 9]: 100 to 1000 nM; IC50 [2, 10]: < 100 nM |
| CCN1C(=O)CCCc2ccc(Nc3ncc(Cl)c(Nc4c(F)cccc4C(=O)NC)n3)cc21 [Example 358, 2-[5-Chloro-2-(1-ethyl-2-oxo-2,3,4,5-tetrahydro-1H-benzo[b]azepin-8-ylamino)pyrimidin-4-ylamino]-3-fluoro-N-methyl-benzamide] | < 100 | < 100 | – | – | – |
| CC(C)N1CCNC(=O)c2ccc(Nc3ncc(Cl)c(N[C@@H]4CCCC[C@H]4NS(C)(=O)=O)n3)cc21 [Example 499, N-{(1R,2R)-2-[5-Chloro-2-(1-isopropyl-5-oxo-2,3,4,5-tetrahydro-1H-benzo[e][1,4]diazepin-8-ylamino)-pyrimidin-4-ylamino]-cyclohexyl}-methanesulfonamide] | – | – | – | – | IC50 [1, 9]: 100 to 1000 nM; IC50 [2, 10]: 100 to 1000 nM |
| CCNC(=O)c1ccccc1Nc1nc(Nc2cc3c(cc2OC)CC(=O)N(CC)CC3)ncc1Cl [Example 255, 2-[5-Chloro-2-(3-ethyl-8-methoxy-2-oxo-2,3,4,5-tetrahydro-1H-benzo[d]azepin-7-ylamino)-pyrimidin-4-ylamino]-N-ethyl-benzamide] | > 10000 | < 100 | – | – | – |
| CCOC(=O)N1C2CCC1c1c(ccc(Nc3ncc(Cl)c(Nc4ccccc4C(=O)NC)n3)c1Cl)C2 (stereo not shown) [Example 75, 3-Chloro-4-[5-chloro-4-(2-methylcarbamoyl-phenylamino)-pyrimidin-2-ylamino]-12-aza-tricyclo[7.2.1.0*2,7*]dodeca-2(7),3,5-triene-12-carboxylic acid ethyl ester] | 1000 to 10000 | < 100 | – | – | – |
| CCN1CC2OC(C1)c1cc(Nc3ncc(Cl)c(Nc4ccccc4C(=O)NC)n3)ccc12 (stereo not shown) [Example 61, 2-[5-Chloro-2-(10-ethyl-12-oxa-10-aza-tricyclo[6.3.1.0*2,7*]dodeca-2,4,6-trien-4-ylamino)-pyrimidin-4-ylamino]-N-methyl-benzamide] | 100 to 1000 | < 100 | – | – | – |
| N-((1R,2R)-2-{5-Chloro-2-[(1R,8S)-10-(2,2,2-trifluoro-acetyl)-10-aza-tricyclo[6.3.2.0*2,7*]trideca-2,4,6-trien-4-ylamino]-pyrimidin-4-ylamino}-cyclohexyl)-methanesulfonamide and N-((1R,2R)-2-{5-Chloro-2-[(1S,8R)-10-(2,2,2-trifluoro-acetyl)-10-aza-tricyclo[6.3.2.0*2,7*]trideca-2,4,6-trien-4-ylamino]-pyrimidin-4-ylamino}-cyclohexyl)-methanesulfonamide [Example 345] | < 100 | < 100 | – | – | – |

Further lines, with some results ahead:

| IC50 [1, 3] [nM] | IC50 [2, 4] [nM] | IC50 [1, 7] [nM] | IC50 [2, 8] [nM] | Compound | also measured |
| --- | --- | --- | --- | --- | --- |
| – | – | 100 to 1000 | < 100 | CNC(=O)c1cc(C)cc(C)c1Nc1nc(Nc2ccc3c(c2)CCNC(=O)C3)ncc1Cl [Example 1814, 2-[5-Chloro-2-(2-oxo-2,3,4,5-tetrahydro-1H-benzo[d]azepin-7-ylamino)-pyrimidin-4-ylamino]-3,5,N-trimethyl-benzamide] | – |
| – | – | 100 to 1000 | < 100 | COc1cc2c(cc1Nc1ncc(Cl)c(Nc3ccccc3S(=O)(=O)N3CC[C@@H](O)C3)n1)CCN(C[C@H](C)O)CC2 [Example 1554, (R)-1-(2-{5-Chloro-2-[3-((S)-2-hydroxy-propyl)-8-methoxy-2,3,4,5-tetrahydro-1H-3-benzazepin-7-ylamino]-pyrimidin-4-ylamino}-benzenesulfonyl)-pyrrolidin-3-ol] | – |
| – | – | 100 to 1000 | 1000 to 10000 | CCNc1nnc(-c2ccccc2Nc2nc(Nc3ccc4c(c3)CCOC(=O)N4C)ncc2Cl)o1 [Example 1783, 2-{5-Chloro-4-[2-(5-ethylamino-[1,3,4]oxadiazol-2-yl)-phenylamino]-pyrimidin-2-ylamino}-5-methyl-8,9-dihydro-5H-7-oxa-5-aza-benzocyclohepten-6-one] | – |
| – | – | 1000 to 10000 | < 100 | COc1cc(N2CCOCC2)ccc1Nc1nc(Nc2ccc3c(c2)C(C)(C)CCC(=O)N3C)ncc1Cl [Example 1573, 7-[5-Chloro-4-(2-methoxy-4-morpholin-4-yl-phenylamino)-pyrimidin-2-ylamino]-1,5,5-trimethyl-1,3,4,5-tetrahydro-benzo[b]azepin-2-one] | – |
| – | – | > 10000 | 100 to 1000 | COc1cc(N2CCOCC2)ccc1Nc1nc(Nc2ccc3c(c2)NCCCC3(C)C)ncc1Cl [Example 1614, 5-Chloro-N*2*-(5,5-dimethyl-2,3,4,5-tetrahydro-1H-benzo[b]azepin-8-yl)-N*4*-(2-methoxy-4-morpholin-4-yl-phenyl)-pyrimidine-2,4-diamine] | – |
| – | – | 1000 to 10000 | 100 to 1000 | Cc1cccc(C(N)=O)c1Nc1nc(Nc2ccc3c(c2)C(C)(C)CCC(=O)N3)ncc1Cl [Example 1476, 2-[5-Chloro-2-(5,5-dimethyl-2-oxo-2,3,4,5-tetrahydro-1H-benzo[b]azepin-7-ylamino)-pyrimidin-4-ylamino]-3-methyl-benzamide] | – |
| – | – | 1000 to 10000 | < 100 | COc1cc(N2CCOCC2)ccc1Nc1nc(Nc2ccc3c(c2)N(CCN(C)C)CCCC3(C)C)ncc1Cl [Example 1641, 5-Chloro-N*2*-[1-(2-dimethylamino-ethyl)-5,5-dimethyl-2,3,4,5-tetrahydro-1H-benzo[b]azepin-8-yl]-N*4*-(2-methoxy-4-morpholin-4-yl-phenyl)-pyrimidine-2,4-diamine] | – |
| – | – | 100 to 1000 | < 100 | CC1(C)CCCNc2cc(Nc3ncc(Cl)c(N[C@H]4[C@@H](C(N)=O)[C@@H]5C=C[C@H]4C5)n3)ccc21 [Example 1613, (1S,2S,3R,4R)-3-[5-Chloro-2-(5,5-dimethyl-2,3,4,5-tetrahydro-1H-benzo[b]azepin-8-ylamino)-pyrimidin-4-ylamino]-bicyclo[2.2.1]hept-5-ene-2-carboxylic acid amide] | – |
| – | – | 100 to 1000 | 100 to 1000 | CCN1CCCOc2ccc(Nc3ncc(Cl)c(Nc4ccsc4C(=O)NC)n3)cc21 [Example 1698, 3-[5-Chloro-2-(9-ethyl-6,7,8,9-tetrahydro-5-oxa-9-aza-benzocyclohepten-2-ylamino)-pyrimidin-4-ylamino]-thiophene-2-carboxylic acid methyl amide] | – |
